From patent US20220177968A1, “METHODS FOR DETECTING OR REDUCING THE INCIDENCE OF ADVERSE DRUG REACTIONS” (CHANG GUNG MEMORIAL HOSPITAL, LINKOU, priority 2019, published 2022)
“And” between values parts separate entries of the source, which are not always exact repeats. Identical values can stand only once.

Experiments:
[1] = system: European descent patients with CBZ-induced SJS/TEN; assay: HLA-A/B allele association with CBZ-induced SJS/TEN (case-control, sequence-based HLA typing); assay type: in vivo, human; details: for OR (95% CI) / Odds ratio (95% CI): CBZ-SJS/TEN cases vs European general population; for SJS/TEN N (%), allele carriers among cases / SCAR case N (%), allele carriers among cases: CBZ-SJS/TEN patients of European descent
Excerpt: (§1) A total of 28 patients of European descent with CBZ-SJS/TEN were enrolled in this study. SJS/TEN is characterized by a rapidly developing exanthema of purpuric macules and target-like lesions with skin detachment accompanied by hemorrhagic-erosive mucosal involvement. Skin detachment in SJS patients affects less than 10% of body surface area (BSA), while TEN patients have skin detachment greater than 30% of BSA. Detachment of 10-30% is defined as SJS/TEN-overlap, reflecting a continuum of severity variants of one disease entity. Patients with CBZ-DRESS were also enrolled for comparison. HLA-A and HLA-B genotypes of patients with CBZ-SJS/TEN were determined by SeCore HLA sequence-based typing (Invitrogen, Life Technologies, USA). Furthermore, the HLA genotypes for patients with CBZ-DRESS and general population (the control group) were also determined. Statistical analyses were performed using SPSS 21.0 (IBM, Armonk, N.Y.). Comparisons of genotype frequencies between groups were performed using Fisher exact tests. Differences were considered statistically significant at p-values of less than 0.05.

[2] = system: patients with CBZ-DRESS, European descent; assay: HLA allele association with CBZ-induced DRESS (case-control, HLA typing); assay type: in vivo, human; details: for Odds ratio (95% CI): CBZ-DRESS cases vs European general population; for SCAR case N (%), allele carriers among cases: CBZ-DRESS patients
Excerpt: as §1

Question: Which results are given for `NC(=O)N1c2ccccc2C=Cc2ccccc21` [CBZ, Carbamazepine]?
Answer: OR (95% CI) ([1]; HLA-A*01:01): 2.2 (1.1-4.7); SJS/TEN N (%), allele carriers among cases ([1]; HLA-A*01:01): 14/28 (50.0%); OR (95% CI) ([1]; HLA-A*02:01): 0.5 (0.2-1.0); SJS/TEN N (%), allele carriers among cases ([1]; HLA-A*02:01): 11/28 (39.29%); OR (95% CI) ([1]; HLA-A*24:02): 0.6 (0.2-1.8); SJS/TEN N (%), allele carriers among cases ([1]; HLA-A*24:02): 3/28 (10.71%); OR (95% CI) ([1]; HLA-A*26:01): 3.5 (1.3-9.0); SJS/TEN N (%), allele carriers among cases ([1]; HLA-A*26:01): 5/28 (17.86%); OR (95% CI) ([1]; HLA-A*31:01): 3.5 (1.2-10.2) and 3.6 (1.2-10.3); Sensitivity (%) ([1]; HLA-A*31:01 as marker of CBZ-SJS/TEN): 14.29%; OR (95% CI) ([1]; HLA-B*08:01): 1.5 (0.7-3.5); SJS/TEN N (%), allele carriers among cases ([1]; HLA-B*08:01): 8/28 (28.57%); OR (95% CI) ([1]; HLA-B*13:02): 1.8 (0.5-6.0); SJS/TEN N (%), allele carriers among cases ([1]; HLA-B*13:02): 3/28 (10.71%); OR (95% CI) ([1]; HLA-B*15:02): 44.4 (2.2-879.5); SJS/TEN N (%), allele carriers among cases ([1]; HLA-B*15:02): 0/28 (0%); OR (95% CI) ([1]; HLA-B*18:01): 1.1 (0.3-3.8); SJS/TEN N (%), allele carriers among cases ([1]; HLA-B*18:01): 3/28 (10.71%); Sensitivity (%) ([1]; HLA-B*38:01 as marker of CBZ-SJS/TEN): 14.29%; OR (95% CI) ([1]; HLA-B*44:02): 0.2 (0.0-1.4); SJS/TEN N (%), allele carriers among cases ([1]; HLA-B*44:02): 1/28 (3.57%); OR (95% CI) ([1]; HLA-B*44:03): 1.9 (0.6-5.4); SJS/TEN N (%), allele carriers among cases ([1]; HLA-B*44:03): 4/28 (14.29%); Odds ratio (95% CI) ([1]; HLA-B*57:01/A*31:01/B*38:01): 9.3 (4.4-19.9); SCAR case N (%), allele carriers among cases ([1]; HLA-B*57:01/A*31:01/B*38:01): (60.71%); Sensitivity (%) ([1]; HLA-B*57:01/A*31:01/B*38:01 as marker of CBZ-SJS/TEN): 60.71%; Odds ratio (95% CI) ([1]; HLA-B*57:01/A*31:01): 8.0 (3.8-16.7); SCAR case N (%), allele carriers among cases ([1]; HLA-B*57:01/A*31:01): (50.00%); Sensitivity (%) ([1]; HLA-B*57:01/A*31:01 as marker of CBZ-SJS/TEN): 50.00%; Odds ratio (95% CI) ([1]; HLA-B*57:01/B*38:01): 8.6 (4.1-18.1); SCAR case N (%), allele carriers among cases ([1]; HLA-B*57:01/B*38:01): (50.00%); Sensitivity (%) ([1]; HLA-B*57:01/B*38:01 as marker of CBZ-SJS/TEN): 50.00%; Sensitivity (%) ([1]; HLA-B*57:01 as marker of CBZ-SJS/TEN): 39.29%; Odds ratio (95% CI) ([2]; HLA-A*31:01): 49.9 (12.9-193.6); Sensitivity (%) ([2]; HLA-A*31:01 as marker of CBZ-DRESS): 70.00%; Odds ratio (95% CI) ([2]; HLA-B*38:01): 1.2 (0.1-21.0); SCAR case N (%), allele carriers among cases ([2]; HLA-B*38:01): (0%); Sensitivity (%) ([2]; HLA-B*38:01 as marker of CBZ-DRESS): 0%; Odds ratio (95% CI) ([2]; HLA-B*57:01/A*31:01/B*38:01): 14.1 (3.6-54.5); SCAR case N (%), allele carriers among cases ([2]; HLA-B*57:01/A*31:01/B*38:01): (70.00%); Sensitivity (%) ([2]; HLA-B*57:01/A*31:01/B*38:01 as marker of CBZ-DRESS): 70.00%; Odds ratio (95% CI) ([2]; HLA-B*57:01/A*31:01): 18.6 (4.8-71.9); SCAR case N (%), allele carriers among cases ([2]; HLA-B*57:01/A*31:01): (70.00%); Sensitivity (%) ([2]; HLA-B*57:01/A*31:01 as marker of CBZ-DRESS): 70.00%; Odds ratio (95% CI) ([2]; HLA-B*57:01/B*38:01): 0.4 (0-7.0); SCAR case N (%), allele carriers among cases ([2]; HLA-B*57:01/B*38:01): (0%); Sensitivity (%) ([2]; HLA-B*57:01/B*38:01 as marker of CBZ-DRESS): 0%; Odds ratio (95% CI) ([2]; HLA-B*57:01): 0.7 (0.0-11.3); SCAR case N (%), allele carriers among cases ([2]; HLA-B*57:01): (0%); Sensitivity (%) ([2]; HLA-B*57:01 as marker of CBZ-DRESS): 0%
